Test results published in patent US6482849B1, “Inhibitors of α4β1 mediated cell adhesion” (Tanabe Seiyaku Co., Ltd., priority 1997, dated 2002).
Where two headings read alike, the source gives them in different places.

Columns and labels:
[1] = tested on: VLA-4 integrin-dependent eosinophil infiltration; test: Dextran pleurisy model (dextran-induced pleural leukocyte infiltration); type: in vivo, C57BL/6 mice; conditions: 4 h post-induction; for change in vivo at 50 mg/kg / change in vivo at 25 mg/kg: Mus musculus; for change in vivo at 25 mg/kg: 25 mg/kg × 2 iv (0h,+1h relative to dextran)
Procedure: C57BL/6 mice (Jackson, Bar Harbor, Me.;), 6-8 weeks old, weighing 20-25 g were used throughout. All mice were acclimated for at least 7-14 days after arrival and maintained under controlled temperature (20-22° C.) and a 12 hr daily light cycle (6.00 A.M.-6.00 P.M.). Mice were housed in laminar flow racks and checked biweekly for viral infections (mouse hepatitis virus, minute virus of mice, rodent orphan parvovirus, Sendai) with kits obtained from Oreganon Teknika (Durham, N.C.) using established enzyme-linked immunoabsorbent assays. Mice testing positive for any of the above were omitted from the study. All mice were fed standard laboratory chow (Upjohn Lab Rodent Irradiated Mouse Chow, #5011-3, PMI Feeds, St. Louis, Mo.) and acidified drinking water (pH 5.0) ad libitum.
Intrapleural injections were made using a 27 G needle cut to 3-4 mm and blunted by filing. Injections were made by inserting the needle between the mid-intercostal ribs on the right side of the thoracic cavity.
Dextran (MW 5-40×10^6, St Louis, Mo.) was injected as a 10% solution in saline in a volume of 100 μl/mouse. Care was taken to avoid bleeding at the site of injection at which the intercostal muscles were cut to facilitate smooth insertion of the needle.
Pleural leukocytes were collected as follows: 4 h post-induction, pleural inflammatory exudate was removed by washing with 2×1.0 ml Ca^++/Mg^++ free HBSS (Gibco, Grand Island, N.Y.) containing 45 mg EDTA/100 ml HBSS, 4° C. Total leukocyte counts were made by hemocytometer following erythrocyte lysis in 2% acetic acid in PBS buffer; exudate leukocyte pellets were resuspended in serum for cytospin preparations and stained (Diff Quik, Baxter Healthcare, McGraw Park, Ill.) for differential leukocyte counts (neutrophils, eosinophils, and mononuclear leukocytes).
The pleural cavities of mice receiving either no intrapleural injection, or saline were washed and the cells counted in the same way to estimate baseline or saline-induced pleural leukocyte counts respectively.
All drugs were dissolved in PBS and the pH adjusted to 7.5 with NaOH. Each drug was administered intravenously through the retroorbital sinus at hourly intervals (0-3 h) starting from time “0” as indicated.
The following camphoric acid analogues were tested for their inhibitory effects on dextran-induced leukocyte infiltration: Examples 4, 12, 54, 63, 166, 93, 180, 181, 183, 184, 217, Camphoric acid or PBS (saline) was administered iv. as a control. Inhibition of eosinophil infiltration, which was suppressed by anti-alpha-4 Mab (PS/2, 50%), was used as a readout of VLA-4 antagonist activity of the camphoric acids tested. Data for neutrophils are also reported.

[2] = molecular target: T1, α4β1 integrin (Jurkat T-cell adhesion to IL-1 stimulated endothelial cell monolayers) (Homo sapiens, UniProt P05556+P13612); test: Jurkat-Endothelial Cell Adhesion Assay (Jurkat EC); type: cell-based; conditions: Jurkat cells on IL-1 stimulated HUVEC monolayers
T1 construct: a T-cell line, Jurkat, known to express the α4β1 integrin; host or cells: Jurkat T-cell line
In short: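 BCECF-loaded Jurkat cells (5×10^5) mixed with compound (generally 100, 20, 5 and 1.25 μM) and added to HUVEC monolayers prestimulated 4 hr with 0.1 ng/ml IL-1, in DMEM-HSA. After 5 min on ice and 20 min at 37° C, washed; fluorescence gives % adhesion relative to no-compound control set at 100%.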

[3] = molecular target: T2, α4β1 integrin (Jurkat cell adhesion to immobilized CS-1 derived peptide CLHPGEILDVPST) (Homo sapiens, UniProt P05556+P13612); test: Jurkat-CS-1 Assay; type: cell-based; conditions: Jurkat cells on CS-1 peptide coated plates
T2 construct: 100 μl of Jurkat cells (2.5×10^6 cells/ml) in DMEM plus BSA; endogenous in cells; host or cells: Jurkat T-cell line
In short: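 CS-1 peptide was SPDP-crosslinked onto HSA-coated plates and blocked with BSA. Jurkat cells (2.5×10^6 cells/ml) in DMEM/BSA were mixed with compound, generally at 100, 20, 5 and 1.25 μM, and allowed to adhere for 1 hr at 37° C. Bound cells were fixed, stained with toluidine blue and quantified by OD590.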

[4] = 50 mg/kg × 2 iv (0h,+1h relative to dextran)
[5] = 50 mg/kg × 4 iv (0h,+1h,+2h,+3h relative to dextran)
[6] = Eosinophil, 50 mg/kg × 2 iv (0h,+1h relative to dextran), read-out: %Δ Pleural Leukocytes, Eos
[7] = Neutrophil, 50 mg/kg × 2 iv (0h,+1h relative to dextran), read-out: %Δ Pleural Leukocytes, Neutro
[8] = Eosinophil, read-out: %Δ Pleural Leukocytes, Eos
[9] = Neutrophil, read-out: %Δ Pleural Leukocytes, Neutro

T1 sequence (P13612 34-1032): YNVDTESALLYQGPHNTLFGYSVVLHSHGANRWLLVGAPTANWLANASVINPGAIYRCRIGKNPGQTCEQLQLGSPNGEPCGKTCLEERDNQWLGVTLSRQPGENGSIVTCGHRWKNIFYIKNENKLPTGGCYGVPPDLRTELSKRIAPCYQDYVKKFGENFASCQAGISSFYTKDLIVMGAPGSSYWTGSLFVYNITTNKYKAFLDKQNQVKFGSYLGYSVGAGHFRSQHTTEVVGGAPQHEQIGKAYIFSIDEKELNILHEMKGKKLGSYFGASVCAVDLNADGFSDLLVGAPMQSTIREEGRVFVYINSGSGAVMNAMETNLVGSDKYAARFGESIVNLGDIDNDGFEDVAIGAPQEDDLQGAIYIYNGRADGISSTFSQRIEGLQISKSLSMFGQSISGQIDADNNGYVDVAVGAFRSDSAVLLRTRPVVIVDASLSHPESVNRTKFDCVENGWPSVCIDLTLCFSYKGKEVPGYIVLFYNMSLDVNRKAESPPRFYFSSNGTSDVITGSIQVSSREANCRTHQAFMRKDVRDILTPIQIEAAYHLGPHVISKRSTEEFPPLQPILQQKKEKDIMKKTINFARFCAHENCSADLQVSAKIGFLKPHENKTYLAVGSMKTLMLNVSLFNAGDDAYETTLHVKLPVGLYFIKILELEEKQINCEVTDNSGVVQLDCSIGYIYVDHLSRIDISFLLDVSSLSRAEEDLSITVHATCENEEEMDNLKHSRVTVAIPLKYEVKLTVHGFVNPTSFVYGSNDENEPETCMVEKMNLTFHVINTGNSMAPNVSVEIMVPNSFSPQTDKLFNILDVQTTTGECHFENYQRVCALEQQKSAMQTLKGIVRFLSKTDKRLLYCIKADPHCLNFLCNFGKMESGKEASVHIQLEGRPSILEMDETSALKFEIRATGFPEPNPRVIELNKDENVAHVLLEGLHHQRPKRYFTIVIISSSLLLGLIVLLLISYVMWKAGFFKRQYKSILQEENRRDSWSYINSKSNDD
T1 sequence (P05556 21-798): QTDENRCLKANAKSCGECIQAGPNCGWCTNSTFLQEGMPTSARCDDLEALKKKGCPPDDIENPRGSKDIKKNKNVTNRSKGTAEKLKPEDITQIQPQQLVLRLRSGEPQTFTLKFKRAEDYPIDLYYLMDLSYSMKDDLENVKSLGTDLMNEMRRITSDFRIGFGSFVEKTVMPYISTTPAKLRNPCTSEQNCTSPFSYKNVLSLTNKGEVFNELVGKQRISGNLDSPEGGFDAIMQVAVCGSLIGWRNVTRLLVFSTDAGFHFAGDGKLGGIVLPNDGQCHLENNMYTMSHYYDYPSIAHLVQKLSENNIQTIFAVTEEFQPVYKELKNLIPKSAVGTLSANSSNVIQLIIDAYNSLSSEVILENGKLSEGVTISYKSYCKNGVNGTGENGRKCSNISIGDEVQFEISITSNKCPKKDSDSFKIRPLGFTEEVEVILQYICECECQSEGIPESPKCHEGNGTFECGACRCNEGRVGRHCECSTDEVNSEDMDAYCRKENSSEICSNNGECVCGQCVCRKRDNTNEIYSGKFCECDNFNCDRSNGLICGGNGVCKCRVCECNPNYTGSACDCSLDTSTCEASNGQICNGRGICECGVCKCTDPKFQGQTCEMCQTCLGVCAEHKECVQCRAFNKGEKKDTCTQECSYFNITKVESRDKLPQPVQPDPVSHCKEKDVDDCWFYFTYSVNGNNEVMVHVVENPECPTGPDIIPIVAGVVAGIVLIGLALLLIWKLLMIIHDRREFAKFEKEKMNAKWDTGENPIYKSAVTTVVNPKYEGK
T2 sequence (P13612 34-1032): as the sequence (P13612 34-1032) above
T2 sequence (P05556 21-798): as the sequence (P05556 21-798) above

IC50 [2] [nM]	IC50 [3] [nM]	melting point	SMILES	change in vivo at 50 mg/kg [1, 6] [%]	change in vivo at 50 mg/kg [1, 7] [%]	further results
800 to 5000	80 to 500	148 to 149 °C (dec.)	CC1(C)[C@@H](C(=O)N[C@@H](Cc2cn(Cc3ccc(Cl)c(Cl)c3)cn2)C(=O)O)CC[C@@]1(C)C(=O)O [Example 4, (1S-cis)-N-[(3-Carboxy-2,2,3-trimethylcyclopentyl)carbonyl]-1-[(3,4-dichlorophenyl)methyl]-L-histidine]	≤ -50	-50 to -10	
≤ 800	≤ 80	231 to 233 °C	CC1(C)[C@@H](C(=O)N[C@@H](Cc2ccc(NC(=O)c3c(Cl)cccc3Cl)cc2)C(=O)O)CC[C@@]1(C)C(=O)O [Example 54, (1S-cis)-N-[(3-Carboxy-2,2,3-trimethylcyclopentyl)carbonyl]-4-[(2,6-dichlorobenzoyl)amino]-L-phenylalanine]			change in vivo at 50 mg/kg ([1]; Eosinophil, 50 mg/kg × 4 iv (0h,+1h,+2h,+3h relative to dextran), read-out: %Δ Pleural Leukocytes, Eos): ≤ -50%; change in vivo at 50 mg/kg ([1]; Neutrophil, 50 mg/kg × 4 iv (0h,+1h,+2h,+3h relative to dextran), read-out: %Δ Pleural Leukocytes, Neutro): -50 to -10%
800 to 5000	≤ 80	92 to 94 °C	CC1(C)[C@@H](C(=O)N[C@@H](Cc2ccc(OCc3c(Cl)cccc3Cl)c([N+](=O)[O-])c2)C(=O)O)CC[C@@]1(C)C(=O)O [Example 63]	-50 to -10	-50 to -10	change in vivo at 25 mg/kg [1, 8]: -50 to -10%; change in vivo at 25 mg/kg [1, 9]: -50 to -10%
≤ 800	≤ 80		CC1(C)[C@@H](C(=O)N[C@@H](Cc2ccc(NC(=O)c3c(Cl)cc(Cl)cc3Cl)cc2)C(=O)O)CC[C@@]1(C)C(=O)O [Example 93]	-50 to -10	-10 to 0	
800 to 5000	80 to 500	152 to 155 °C	Cc1ccccc1C(=O)Nc1ccc(C[C@H](NC(=O)[C@H]2CC[C@@](C)(C(=O)O)C2(C)C)C(=O)O)cc1 [Example 142]			
800 to 5000	80 to 500	195 to 198 °C	CC1(C)[C@@H](C(=O)N[C@@H](Cc2ccc(NC(=O)c3ccccc3N)cc2)C(=O)O)CC[C@@]1(C)C(=O)O [Example 144]			
800 to 5000	80 to 500	208 to 211 °C	CC1(C)[C@@H](C(=O)N[C@@H](Cc2ccc(NC(=O)C3Cc4ccccc4CN3)cc2)C(=O)O)CC[C@@]1(C)C(=O)O (stereo partly drawn) [Example 146]			
800 to 5000	500 to 1000	220 to 223 °C	Cc1ccc(S(=O)(=O)Nc2ccc(C[C@H](NC(=O)[C@H]3CC[C@@](C)(C(=O)O)C3(C)C)C(=O)O)cc2)cc1 [Example 150]			
≤ 800	≤ 80	100 to 103 °C	CC1(C)[C@@H](C(=O)N[C@@H](Cc2ccc(NCc3c(Cl)cccc3Cl)cc2)C(=O)O)CC[C@@]1(C)C(=O)O [Example 152]			
5000 to 10000	500 to 1000	102 to 104 °C	CC1(C)[C@@H](C(=O)N[C@@H](Cc2ccc(OCc3c(Cl)cccc3Cl)cc2)C(=O)O)CC[C@@]1(C)C(N)=O [Example 155, (1S-cis)-N-[[3-(Aminocarbonyl)-2,2,3-trimethylcyclopentyl]carbonyl]-O-[(2,6-dichlorophenyl)methyl]-L-tyrosine]			
≤ 800	≤ 80	196 to 198 °C	CC1(C)[C@@H](C(=O)N[C@@H](Cc2ccc(NC(=O)c3c(Cl)cccc3Cl)cc2)C(=O)O)CC[C@@]1(C)C(N)=O [Example 166]	-50 to -10	-10 to 0	
≤ 800	≤ 80		CC1(C)[C@@H](C(=O)N[C@@H](Cc2ccc(NC(=O)c3c(Cl)cccc3Cl)cc2)C(=O)O)CC[C@@]1(C)C(=O)NCC(=O)O [Example 181, (1S-cis)-N-[[3-[[(Carboxymethyl)amino]carbonyl]-2,2,3-trimethylcyclopentyl]carbonyl]-4-[(2,6-dichlorobenzoyl)amino]-L-phenylalanine]	-50 to -10	-50 to -10	change in vivo at 25 mg/kg [1, 8]: -50 to -10%; change in vivo at 25 mg/kg [1, 9]: -50 to -10%
≤ 800	≤ 80		CC1(C)[C@@H](C(=O)N[C@@H](Cc2ccc(NC(=O)c3c(Cl)cccc3Cl)cc2)C(=O)O)CC[C@@]1(C)C#N [Example 184, (1S-cis)-N-[[3-Cyano-2,2,3-trimethylcyclopentyl]carbonyl]-4-[(2,6-dichlorobenzoyl)amino]-L-phenylalanine]	≤ -50	-50 to -10	change in vivo at 25 mg/kg [1, 8]: -50 to -10%; change in vivo at 25 mg/kg [1, 9]: -50 to -10%
≤ 800	80 to 500	172 to 174 °C	CC1(C)[C@@H](C(=O)N[C@@H](Cc2ccc(NC(=O)c3cccnc3Cl)cc2)C(=O)O)CC[C@@]1(C)C(=O)O [Example 208, (1S-cis)-N-[(3-Carboxy-2,2,3-trimethylcyclopentyl)carbonyl]-4-[[(2-chloro-3-pyridinyl)carbonyl]amino]-L-phenylalanine]			
≤ 800	≤ 80	246 to 247 °C	CC1(C)[C@@H](C(=O)N[C@@H](Cc2ccc(NC(=O)c3ccc(Cl)nc3Cl)cc2)C(=O)O)CC[C@@]1(C)C(=O)O [Example 209, (1S-cis)-N-[(3-Carboxy-2,2,3-trimethylcyclopentyl)carbonyl]-4-[[(2,6-dichloro-3-pyridinyl)carbonyl]amino]-L-phenylalanine]			
≤ 800	≤ 80	128 to 131 °C	COc1nc(Cl)ccc1C(=O)Nc1ccc(C[C@H](NC(=O)[C@H]2CC[C@@](C)(C(=O)O)C2(C)C)C(=O)O)cc1 [Example 210, (1S-cis)-N-[(3-Carboxy-2,2,3-trimethylcyclopentyl)carbonyl]-4-[[(2-methoxy-6-chloropyridin-3-yl)carbonyl]-amino]-L-phenylalanine]			
≤ 800	≤ 80		CC1(C)[C@@H](C(=O)N[C@@H](Cc2ccc(NC(=O)c3c(Cl)cccc3Cl)cc2)C(=O)O)CC[C@@]1(C)C(=O)NOCc1ccccc1 [Example 217]	-50 to -10	-10 to 0	

SMILES	IC50 [2] [nM]	IC50 [3] [nM]	melting point	change in vivo at 50 mg/kg [1, 6] [%]	change in vivo at 50 mg/kg [1, 7] [%]	further results
CC1(C)[C@@H](C(=O)N[C@@H](Cc2ccc(OCc3c(Cl)cccc3Cl)cc2)C(=O)O)CC[C@@]1(C)C(=O)O (relative stereo) [Example 12, (1S-cis)-N-[(3-Carboxy-2,2,3-trimethylcyclopentyl)carbonyl]-O-[(2,6-dichlorophenyl)methyl]-L-tyrosine]	≤ 800	≤ 80				%Δ Pleural Leukocytes, Eos [1, 4]: A (A≦−50); %Δ Pleural Leukocytes, Neutro [1, 4]: B (−50<B<−10); %Δ Pleural Leukocytes, Eos [1, 5]: A (A≦−50); %Δ Pleural Leukocytes, Neutro [1, 5]: B (−50<B<−10)
